Experimental findings from patent US20180002366A1, “4'-SUBSTITUTED NUCLEOSIDE REVERSE TRANSCRIPTASE INHIBITORS” (MERCK SHARP & DOHME CORP., priority 2014, published 2018) are described below.

Where only a bound is given, the exact number is not on record here.

Data set [1] has as its target T1, adenosine deaminase (ADA) type 1 (Homo sapiens, UniProt P00813).
T1 sequence (P00813 1-363): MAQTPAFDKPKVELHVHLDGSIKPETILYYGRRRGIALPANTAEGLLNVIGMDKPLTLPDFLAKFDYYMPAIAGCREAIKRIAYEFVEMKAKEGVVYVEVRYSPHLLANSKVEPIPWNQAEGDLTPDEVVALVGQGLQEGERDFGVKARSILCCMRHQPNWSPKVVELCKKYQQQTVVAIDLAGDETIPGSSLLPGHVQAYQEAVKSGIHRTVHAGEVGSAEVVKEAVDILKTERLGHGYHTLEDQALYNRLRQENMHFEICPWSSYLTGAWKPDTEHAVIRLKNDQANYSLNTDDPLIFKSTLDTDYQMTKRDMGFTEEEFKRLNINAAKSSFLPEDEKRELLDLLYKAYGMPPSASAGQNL
Nature of the data set: Adenosine Deaminase (ADA) Half-Life. The class given is in vitro ADME. Conditions: human, human adenosine deaminase (ADA) type 1 in Tris-HCl buffer; time for 50% conversion to inosine product; Tris-HCl buffer pH 7.5, 40° C., LCMS. Here is the method: (§1) The data in Table 5 was generated by reacting a substrate compound with human ADA type 1 in the presence of Tris-HCl buffer (pH 7.5) at 40° C. and monitoring by LCMS for consumption of starting material. The time necessary for 50% conversion to the corresponding inosine product is noted as the T1/2 in Table 5. It is known that deamination by adenosine deaminase decreases the therapeutic potential of adenosine-like nucleoside inhibitors especially in vivo (see references below). […] It is possible that compounds that are more resistant to ADA will have better pharmacokinetic properties.
(§2) Tris-HCl buffer (pH 7.5, 5 mL) was injected into a 25-mL round-bottom flask. The mixture was heated to reflux for 30 minutes. Then the mixture was cooled to 30° C. and (2R,3S,5R)-5-(4-amino-5-fluoro-7H-pyrrolo[2,3-d]pyrimidin-7-yl)-2-ethynyl-2-(hydroxymethyl)tetrahydrofuran-3-ol (Example compound 2, 7 mg, 0.024 mmol) was added, followed by the addition of adenosine deaminase (3 mg, ˜33 units). The resulting mixture was stirred at 40° C. and stirred for 4 days. The reaction mixture was concentrated under vacuum and the residue was purified by preparative-HPLC with the following conditions: Column: X-Bridge C18, 19*150 mm, 5 um; mobile phase, water with 10 mmol ammonium bicarbonate and acetonitrile (6% acetonitrile up to 30% in 5 min, hold 95% for 2 min, down to 40% in 2 min); Detector, uv 254&220 nm. The product-containing fractions were collected and lyophilized to give the title compound 2A as a solid. ^1H-NMR: (400 MHz, d6-DMSO, ppm): δ 11.58 (brs, 1H), 7.86 (s, 1H), 7.22 (d, J=1.6 Hz, 1H), 6.44 (t, J=5.8 Hz, 1H), 5.47 (d, J=4.8 Hz, 1H), 5.26-5.22 (m, 1H), 4.39-4.35 (m, 1H), 3.55-3.45 (m, 2H), 3.42 (s, 1H), 2.41-2.24 (m, 2H). ^19F-NMR: (376 MHz, d6-DMSO, ppm): δ −165.50 (s, 1F). LC-MS: (ES, m/z): 294.15 [M+H]^+.
(§3) Using the described procedures, conversion of compounds 4, 8 and 9 to 4A, 8A and 9A, respectively, was not detected (NA=substrate insensitive to adenosine deaminase).

Data set [2] relates to HIV-1 (H9IIIB virus) replication in MT4-GFP cells. Nature of the data set: Viking Assay: antiviral potency in a multiple round HIV-1 infection assay. The class given is cell-based. The note with it: inhibition of reproductive ratio R0 between ~48 h and ~72 h post-infection, read-out: Viking, IC50 (10% NHS). The method, then:
Assessing Antiviral Potency in a Multiple Round HIV-1 Infection Assay.
Cells were then washed and re-suspended in either RPMI 1640 containing 10% or 50% normal human serum at 1.6×10^5 cells/mL (10% or 50% NHS conditions) or in 100% normal human serum at 2×10^5 cells/mL (100% NHS conditions).
The increase in the number of green cells over ˜24 h period gives the reproductive ratio, R0, which is typically 5-15 and has been shown experimentally to be in logarithmic phase (data not shown). Inhibition of R0 is calculated for each well, and IC50s determined by non-linear 4-parameter curve fitting.

Data set [3] has the same test system. Nature of the data set: Antiviral Persistence assay. Conditions: for Fold shift IC50 72 h/24 h: ratio of IC50 72 h to IC50 24 h. The method, then: HIV-1 replication was monitored using MT4-gag-GFP clone D3 (hereafter designate MT4-GFP), which are MT-4 cells modified to harbor a GFP reporter gene, the expression of which is dependent on the HIV-1 expressed proteins tat and rev. Productive infection of an MT4-GFP cell with HIV-1 results in GFP expression approximately 24 h post-infection. MT4-GFP cells were maintained at 37° C./5% CO2/90% relative humidity in RPMI 1640 supplemented with 10% fetal bovine serum, 100 U/mL penicillin/streptomycin, and 400 μg/mL G418 to maintain the reporter gene. For 72 hour time point persistence assay (72 h plate) and 24 hour time point control assay (24 h plate), MT4-GFP cells were washed and re-suspended in RPMI 1640 containing 10% normal human serum at either 1.6×10^5 or 2.4×10^5 cells/mL (10% NHS). Compound plates were prepared by dispensing compounds dissolved in DMSO into wells of 384 well cell culture plates ([…]) using an ECHO acoustic dispenser. Each compound was tested in a 10 point serial 3-fold dilution (typical final concentrations: 4.2 μM-0.21 nM). Controls included no inhibitor (DMSO only) and a combination of three antiviral agents (efavirenz, indinavir, and an integrase strand transfer inhibitor at final concentrations of 4 μM each). Cells were added (50 μL/well) to compound plates and were incubated at 37° C./5% CO2/90% relative humidity for 24 hours. The cells were washed with 5×40 uL of RPMI 1640 supplemented with 10% NHS and 100 U/mL penicillin/streptomycin. 72 h plate was return back to 37° C. incubator for additional 48 hour incubation. 40 uL of the cells from each well of the 24 h plate or the 72 h plate (after 48 hour incubation post wash) were transferred to a poly-D-lysine coated plate. The cells were then infected with H9IIIB virus at an approximate multiplicity of infection of 0.1 in the same incubation conditions.
Infected cells were quantified at ˜24 h post-infection, by counting the number of green cells in each well using an Acumen eX3 scanner. IC50s for the compounds in Table 4 were determined by non-linear 4-parameter curve fitting.
The antiviral persistence assay is meant to assess for the persistence of antiviral activity upon removal of the nucleoside. […] The publication AIDS Research and Therapy, 2009, 6:5, highlights the value of antiviral persistence.

Another data set concerns the target T2, human ADA type 1 (Homo sapiens, UniProt P00813).
T2 sequence (P00813 1-363): T1 sequence (P00813 1-363)
Nature of the data set: Adenosine Deaminase (ADA) Half-Life. The class given is in vitro ADME. Conditions: Tris-HCl buffer pH 7.5, 40° C., procedures as for compound 2 to 2A. Here is the method:
as §1, §2, §3

Another data set relates to MT4-GFP cells. Nature of the data set: CTG Assay: cytotoxicity in CellTiter-Glo Luminescent Cell Viability Assay. The class given is cell-based. The note with it: 10% normal human serum, 48 h incubation, top concentration 8.4 μM. Here is the method:
Assessing Cytotoxicity in CellTiter-Glo Luminescent Cell Viability Assay (CTG).
Cells were then washed and resuspended in RPMI 1640 containing 10% normal human serum at a density of 0.8×10^5 cells/mL. […] Controls included DMSO. […] CTG reagent (Promega, G7573) was added to the cell plates after 48 h incubation according to the manufacturer's description. Luminescence signals were recorded on EnVision plate reader (PerkinElmer). LD50s were determined by non-linear 4-parameter curve fitting. The resulting data is shown in Table 3 with the marketed HIV nucleoside reverse transcriptase inhibitor AZT (azidothymidine, zidovudine) included as a control.
For orientation: In ATP-based viability assays light output follows the ATP content of the culture.

[4] abbreviates: Human immunodeficiency virus 1, 10% normal human serum.
The mark [5] stands for this setting: Human immunodeficiency virus 1, 24 h, read-out: IC50 24 h (nM).
[6] abbreviates: Human immunodeficiency virus 1, read-out: IC50 72 h (nM).

As a reminder, the half-life is the time in which the quantity being followed falls by half. A high value points to slow loss. With `C#C[C@]1(CO)O[C@@H](n2cnc3c(N)ncnc32)C[C@@H]1O` [EDA, (2R,3S,5R)-5-(6-amino-9H-purin-9-yl)-2-ethynyl-2-(hydroxymethyl)tetrahydrofuran-3-ol, reference compound], the half-life at 4.8 mM in data set [1] is under 1 h.

In general, IC50 refers to the concentration that inhibits the measured activity by half. With `C#C[C@]1(CO)O[C@@H](c2cnc3c(N)ncnn23)C[C@@H]1O` [Example 22, (2R,3S,5R)-5-(4-aminoimidazo[2,1-f][1,2,4]triazin-7-yl)-2-ethynyl-2-(hydroxymethyl)tetrahydrofuran-3-ol], the figures for the IC50 in data set [2] (setting [4]), in data set [3] (setting [5]) and in data set [3] (setting [6]) were 38 nM, 38 nM and 350 nM, respectively. Besides, the “Fold shift IC50 72 h/24 h” value in data set [3] is given as 9.2. In data set [1], this molecule gave a half-life at 4.8 mM of 0.167 h.

Regarding `C#C[C@]1(CO)O[C@@H](n2ccc3c(N)nc(Cl)nc32)C[C@@H]1O` [Example 4, (2R,3S,5R)-5-(4-amino-2-chloro-7H-pyrrolo[2,3-d]pyrimidin-7-yl)-2-ethynyl-2-(hydroxymethyl)tetrahydrofuran-3-ol], the IC50 in data set [2] (setting [4]) amounted to 4 nM; in data set [3] (setting [5]), 9.6 nM; in data set [3] (setting [6]), 360 nM. In addition, in data set [3], the “Fold shift IC50 72 h/24 h” value was 37.5. In addition, the “conversion to the corresponding inosine product by adenosine deaminase” value (“conversion” for short) at human ADA type 1 is reported as “not detected”.

Regarding `C#C[C@]1(CO)O[C@@H](n2cc(F)c3c(N)ncnc32)C[C@@H]1O` [Example 2, (2R,3S,5R)-5-(4-amino-5-fluoro-7H-pyrrolo[2,3-d]pyrimidin-7-yl)-2-ethynyl-2-(hydroxymethyl)tetrahydrofuran-3-ol], the results for the IC50 in data set [2] (setting [4]), in data set [3] (setting [5]) and in data set [3] (setting [6]) were 1.6 nM, 6.6 nM and 193 nM, respectively. Further, the “Fold shift IC50 72 h/24 h” value in data set [3] stood at 29. Moreover, the half-life at 4.8 mM in data set [1] was 16 h.

Take `C#C[C@]1(CO)O[C@@H](n2ccc3c(N)nc(F)nc32)C[C@@H]1O` [Example 9, (2R,3S,5R)-5-(4-amino-2-fluoro-7H-pyrrolo[2,3-d]pyrimidin-7-yl)-2-ethynyl-2-(hydroxymethyl)tetrahydrofuran-3-ol]: the IC50 stood at 10.2 nM in data set [2] (setting [4]), 37 nM in data set [3] (setting [5]) and 270 nM in data set [3] (setting [6]). Moreover, the “Fold shift IC50 72 h/24 h” value in data set [3] is 7.3. Also, the “conversion” value at human ADA type 1 is “not detected”.

With `Nc1ncnc2c1ncn2[C@H]1C[C@H](O)[C@@H](CO)O1` [Deoxy- adenosine, deoxyadenosine, reference compound], the half-life at 4.8 mM in data set [1] is under 0.167 h.

With `C#C[C@]1(CO)O[C@@H](c2cnn3c(N)ncnc23)C[C@@H]1O` [Example 23, (2R,3S,5R)-5-(4-aminopyrazolo[1,5-a][1,3,5]triazin-8-yl)-2-ethynyl-2-(hydroxymethyl)tetrahydrofuran-3-ol], the IC50 in data set [2] (setting [4]) amounted to 64 nM; in data set [3] (setting [5]), 64 nM; in data set [3] (setting [6]), 700 nM. Also, in data set [3], the “Fold shift IC50 72 h/24 h” value was 10.9. This molecule also displayed a half-life at 4.8 mM in data set [1] of 0.167 h.

Turning to `C#C[C@]1(CO)O[C@@H](c2ccc3c(N)ncnn23)C[C@@H]1O` [Example 11, (2R,3S,5R)-5-(4-aminopyrrolo[2,1-f][1,2,4]triazin-7-yl)-2-ethynyl-2-(hydroxymethyl)tetrahydrofuran-3-ol], the IC50 in data set [2] (setting [4]) came out at 17.2 nM; in data set [3] (setting [5]), 12.4 nM; in data set [3] (setting [6]), 1950 nM. Also, in data set [3], the “Fold shift IC50 72 h/24 h” value is 157. The same molecule showed a half-life at 4.8 mM in data set [1] of 3 h.

In the data set on MT4-GFP cells, “(2R,3S,5R)-5-(4-aminopyrrolo[2,1-f][1,2,4]triazin-7-yl)-3-hydroxy-2-(hydroxymethyl)tetrahydrofuran-2-carbonitrile [Example 12]” yielded an LD50 of over 8.4 µM. Besides, the IC50 in data set [2] (10% normal human serum) came out at 735 nM; in data set [3] (read-out: IC50 24 h, 24 h plate: cells incubated with compound 24 hours, washed, then infected, 10% NHS), 880 nM; in data set [3] (read-out: IC50 72 h, 72 h plate: compound 24 hours, washed, additional 48 hour incubation, then infected, 10% NHS), 25000 nM.

Take `C#C[C@]1(CO)O[C@@H](n2ccc3c(N)nc(N)nc32)C[C@@H]1O` [Example 8, (2R,3S,5R)-5-(2,4-diamino-7H-pyrrolo[2,3-d]pyrimidin-7-yl)-2-ethynyl-2-(hydroxymethyl)tetrahydrofuran-3-ol]: the IC50 was 194 nM in data set [2] (setting [4]), 840 nM in data set [3] (setting [5]) and 29000 nM in data set [3] (setting [6]). Also, the “Fold shift IC50 72 h/24 h” value in data set [3] is reported as 34.5. Moreover, on human ADA type 1, the “conversion” value was “not detected”.

Consider `C#C[C@]1(CO)O[C@@H](n2ccc3c(N)ncnc32)C[C@@H]1O` [Example 1, (2R,3S,5R)-5-(4-amino-7H-pyrrolo[2,3-d]pyrimidin-7-yl)-2-ethynyl-2-(hydroxymethyl)tetrahydrofuran-3-ol], for which the IC50 worked out at 1.3 nM in data set [2] (setting [4]), 0.8 nM in data set [3] (setting [5]) and 36 nM in data set [3] (setting [6]). In addition, in data set [3], the “Fold shift IC50 72 h/24 h” value was 45. Moreover, the half-life at 4.8 mM in data set [1] is 288 h.
